# Measurements reported in patent US12269816B2, “Benzothiophene compound, preparation method therefor and use thereof” (SICHUAN KELUN-BIOTECH BIOPHARMACEUTICAL CO., LTD., priority 2019, dated 2025).
# Legend:
# [1] = test system: STING-mediated interferon (IFN) signal reporter gene in THP1-Blue™ ISG cells; assay: STING-mediated interferon (IFN) signal SEAP reporter gene assay in THP1-Blue ISG cells; type: cell-based, human; details: for EC50: Homo sapiens, 16 h incubation, SEAP reporter read at OD620nm; for Emax (OD620nm): highest OD620nm value generated by stimulation of the compound, 16 h; for agonistic effect on the STING-mediated Interferon (IFN) signal pathway: result in words
# [2] = test system: STING and its downstream proteins TBK1 and IRF3 in THP-1 cells; assay: Western blotting of phosphorylation of STING signal pathway proteins in human THP-1 cells; type: cell-based; details: 3 hours, protein blotting, FIGS. 1-5, result in words
# Source text: In this experiment, the changes in the phosphorylation levels of STING and its downstream proteins TBK1 (TANK-binding kinase 1) and IRF3 (interferon regulatory factor 3) were detected by protein blotting to evaluate the agonistic effect of the test compounds on the STING signal pathway at the cellular level.
# The THP-1 cells in the logarithmic phase were centrifuged, and resuspended in a cell culture solution to a density of […]. The cell suspension was inoculated into a 12-well cell culture plate (Corning) at 0.5 mL/well. The compound to be tested was diluted with a cell culture solution to 2× working solution concentration (control compounds 1 and 2: 60 μM; compounds 1 and 3: 0.6 μM, 6 μM, and 60 μM; compounds 2, 4, 6 and 8: 6 μM, 20 μM, and 60 μM). 0.5 mL of the diluted solution of the compound was added into a 12-well plate (500 μl of the culture solution containing 2% DMSO was added into the negative control well), and the plate was incubated in a cell incubator for 3 hours. After the incubation, the cells were collected by centrifugation, lysed with 60 μL cell lysis buffer (CST) for 30 minutes, and centrifuged at 12,000 rpm for 15 minutes. The supernatant was collected to determine the protein concentration, and then an appropriate amount of 5× protein loading buffer was added. The mixture was heated at 95° C. for 10 minutes to prepare a protein electrophoresis sample. Finally protein blotting was performed to detect the phosphorylation level of the corresponding protein. The primary antibodies used in the protein blotting were purchased from CST: STING (D2P2F) rabbit mAb, Phospho-STING (Ser366) rabbit mAb, Phospho-IRF3 (Ser396) (D601M) rabbit mAb, IRF3 (D83B9) rabbit mAb, TBK1/NAK (D1B4) rabbit mAb, Phospho-TBK1/NAK (Ser172) (D52C2) XP® rabbit mAb, and GAPDH (D16H11) rabbit mAb; and the secondary antibody horseradish peroxidase-conjugated goat anti-rabbit IgG (H+L) was purchased from Zsgb-bio.
# [3] = molecular target: T1, hSTING protein (Homo sapiens, UniProt Q86WV6); assay: Human STING binding kit (HTRF) competitive binding assay; details: for Ki: calculated as Ki=1/2*IC50 per kit instructions; for IC50: competition with d2-STING-ligand for 6×His-hSTING, HTRF, 3 h at 25° C.; for binding affinity to the hSTING protein: result in words
# T1 construct: purchased Cisbio
# T1 sequence (Q86WV6 whole entry H232R): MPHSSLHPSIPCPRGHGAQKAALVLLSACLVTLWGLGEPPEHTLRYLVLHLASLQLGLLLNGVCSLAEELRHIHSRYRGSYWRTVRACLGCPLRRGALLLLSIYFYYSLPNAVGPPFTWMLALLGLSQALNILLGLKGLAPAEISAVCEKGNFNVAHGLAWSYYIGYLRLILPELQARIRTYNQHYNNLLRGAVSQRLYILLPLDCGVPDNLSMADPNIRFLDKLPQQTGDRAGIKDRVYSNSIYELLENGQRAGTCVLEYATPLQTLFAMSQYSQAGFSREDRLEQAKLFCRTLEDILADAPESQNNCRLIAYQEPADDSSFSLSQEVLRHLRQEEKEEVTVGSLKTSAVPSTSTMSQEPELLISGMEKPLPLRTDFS
# Source text: In this experiment, the capability of the compound and the specific ligand (d2-STING-ligand) in a Human STING binding kit from Cisbio for competitively binding to the 6×His-hSTING protein was detected using the Human STING binding kit (HTRF method), so as to evaluate the binding affinity between the compound to be tested and the hSTING protein.
# The compound was gradiently diluted with a dilution buffer in the Human STING binding kit (the diluent buffer reagent) to obtain a 4× working concentration diluted solution. […] The 6×His-hSTING protein (50× in the mother liquor) was diluted to 1× with the detection buffer in the Human STING binding kit (the detection buffer reagent). 5 μl of the diluted solution was added into the corresponding wells of a 384-well plate, and the well with no protein and no compound was set as a negative control well (min), while the well with the protein and no compound was set as a positive control well (max). The d2-STING-ligand and Tb^3+-anti-6×His-antibody (both 50× in the mother liquor) were diluted to 1× with the detection buffer in the Human STING binding kit (the detection buffer reagent), and mixed uniformly at a ratio of 1:1. 10 μl of the mixed solution was added to the corresponding wells of a 384-well plate. The plate was sealed and incubated at room temperature (25° C.) for 3 h. A BMG microplate reader was used to read HTRF, and the ratio was calculated according to the following formula: Ratio=signal665nm/signal620nm×10000. […] IC50 was calculated through log(inhibitor) vs. response—Variable slope fitting by the Graphpad Prism software.
EC50 [1],Ki [3],IC50 [3],binding affinity to the hSTING protein [3],SMILES,Emax (OD620nm) [1],agonistic effect on the STING-mediated Interferon (IFN) signal pathway [1],"agonistic effect on the phosphorylation levels of STING, TBK1 and IRF3 [2]"
55.3 nM,0.069 nM,0.139 nM,strong binding affinity,"COc1cc2sc(C(=O)CCC(=O)O)cc2cc1OCCCOc1cc2cc(C(=O)N(C)CCC(=O)O)sc2cc1OC [Compound 8, 4-(5-(3-((2-((2-carboxyethyl)(methyl)carbamoyl)-6-methoxybenzo[b]thiophen-5-yl)oxy)propoxy)-6-methoxybenzo[b]thiophen-2-yl)-4-oxobutanoic Acid]",1.73 OD620nm,strong agonistic effects,strong agonistic effects
35.5 nM,16.1 nM,32.2 nM,strong binding affinity,"COc1cc2sc(C(=O)N(C)CCC(=O)O)cc2cc1OCCCOc1cc2sc(C(=O)CCC(=O)O)cc2cc1OC [Compound 4, 4-(6-(3-((2-((2-carboxyethyl)(methyl)carbamoyl)-6-methoxybenzo[b]thiophen-5-yl)oxy)propoxy)-5-methoxybenzo[b]thiophen-2-yl)-4-oxobutanoic acid]",1.97 OD620nm,strong agonistic effects,strong agonistic effects
74.5 nM,4.55 nM,9.1 nM,strong binding affinity,"COc1cc2sc(C(=O)CCC(=O)O)cc2cc1OCCCOc1cc2sc(C(=O)N(C)CCC(=O)O)cc2cc1OC [Compound 6, 4-(5-(3-((2-((2-carboxyethyl)(methyl)carbamoyl)-5-methoxybenzo[b]thiophen-6-yl)oxy)propoxy)-6-methoxybenzo[b]thiophen-2-yl)-4-oxobutanoic acid]",1.88 OD620nm,strong agonistic effects,strong agonistic effects
